Assay results from patent publication US20260103721A1, “GENES CONTROLLING BARRIER FORMATION IN ROOTS” (The Regents of the University of California, priority 2022, published 2026).

Experiments:
Assay type in all cases: in vivo, Solanum lycopersicum
[1] = system: tomato root; test: Root growth after 24 h piperonylic acid treatment; details: 200 μM PA, 4-day-old plants, newly grown root zone after transfer
Protocol: FIG. 7A-B (also referred to as Supplemental FIG. 2 in technical section). […] A. Schematic representation of the experimental design to test the PA. 4-day-old plants after germination were transferred to MS media+1% sucrose with and without 200 μM of PA. After 24 hours, root growth was measured for the part of the root that grew after transferring. Orange horizontal bar=newly grown root after transferring. B. Root growth after 24H in control and PA treatment for the newly root zone after transferring (statistical significance test determined by ANOVA p-value 0.05).
(§1) Seeds of M82 were grown in 1% MS+1% sucrose. Four days after germination, plants were transferred to new MS square plates with/without 200 μM of piperonylic acid (Sigma P49805-5G) and 200 μM piperonylic acid plus 10 mM monolignols (Sigma Aldrich 223735-100MG,404586-100MG) for 24 hours in the dark, with DMSO as the solvent. Three cm segments from the root tip including the root meristem were exposed to 15 μg/mL PI (P4170; Sigma) in the dark at 30° C. for 1 h. The roots were washed in water and one cm segments from the root tip were embedded in 3% agarose and made sections of 150-200 μM using a vibratome (Leica VT1000 S). Confocal Laser Scanning microscopy was performed on a Zeiss LSM700 confocal with the 20× objective, at 405 nm excitation and 600-650 nm detection.

[2] = system: root lignin biosynthesis within the endodermis and exodermis; test: Root lignin deposition (basic fuchsin staining) after PA treatment; details: 200 μM PA, 24 hours
Protocol: For root sections stained with basic fuchsin (Fisher scientific Cat no 632-99-5) and calcofluor white (PhytoTechnology laboratories Cat no 4404-43-7), 1 cm segments from the root tip were embedded in 3% agarose and were sectioned at 150-200 μM using a vibratome (Leica VT1000 S). The sections were stained in Clearsee buffer (Ursache et al. 2018) with basic fuchsin for 30 minutes then washed two times. In some cases, the sections were stained with calcofluor after basic fuchsin for 30 minutes and washed two times. Confocal Laser Scanning microscopy was performed on a Zeiss LSM700 confocal with the 20× objective, basic fuchsin: 550-561 nm excitation and 570-650 nm detection. Root samples were mounted in ClearSee (Ursache et al., 2018) and scanned and imaged on a Zeiss Observer Z1 with the 20× or 40× objective, basic fuchsin: 550-561 nm excitation and 570-650 nm detection and calcofluor white: 405 nm excitation and 425-475 nm detection.
Seeds of M82 were grown in 1% MS+1% sucrose. Four days after germination, plants were transferred to new MS square plates with/without 200 μM of piperonylic acid (Sigma P49805-5G) and 200 μM piperonylic acid plus 10 mM monolignols (Sigma Aldrich 223735-100MG,404586-100MG) for 24 hours in the dark, with DMSO as the solvent. […]

[3] = system: exodermal lignin cap (apoplastic barrier) of tomato root; test: Apoplastic tracer assay with propidium iodide (PI); details: 200 μM PA 24 hours, then PI 30 minutes
Protocol: as §1, with “Three cm segments from the root tip including the root meristem were exposed to 15 μg/mL PI (P4170; Sigma) in the dark at 30° C. for 1 h.” left out

`O=C(O)c1ccc2c(c1)OCO2` [PA, Piperonylic acid] was tested, and the root growth [1] was “does not interfere with root growth”, the root growth ([1]; listed as Piperonylic acid) was “does not affect root growth” and the “root lignin biosynthesis within the endodermis and exodermis” value [2] was “does disrupt root lignin biosynthesis”. For the same molecule, the “PI penetration into cortex cells” value [3] was “Pt was observed after exposure within cortex cells” and the “PI signal in the exodermal lignin cap (PI blockage)” value ([3]; control versus PA-treated) was “more intense in control relative to PA-treated plants”.
